According to patent US20230106506A1, “NOVEL PqsR INVERSE AGONISTS” (Helmholtz-Zentrum Fur Infektionsforschung GmbH, priority 2020, published 2023):
pIC50: −log10 of the molar value.

Tests used:
[1] = Kinetic turbidimetric aqueous solubility; assay type: physicochemical; conditions: aqueous buffer, kinetic from dmso stock; PBS buffer, final DMSO 2%, absorbance 620 nm; read-out: Kinetic Turbidimetric Aqueous Solubility at room temperature for 5 min
Method: Kinetic Turbidimetric Aqueous Solubility at room temperature for 5 min. […] Data was analyzed by fitting a four parameter sigmoidal function to the measured and normalized absorbances and AUC calculation providing access to Log S (decadic logarithm of the solubility).

[2] = Metabolic stability in mouse liver microsomes (MLM); assay type: in vitro ADME; conditions: 1 μM compound, 0.5 mg/mL MLM, 1 mM NADPH, 37° C., read-out: half-life (t1/2) towards MLM
Method: For the evaluation of phase I metabolic stability, the compound (1 μM) was incubated with 0.5 mg/mL MLM (Corning) and 1 mM NADPH at 37° C. for 0, 5, 10, 15 and 30 min. The metabolic stability of Verapamil, Diphenhydramine and Benzydamine (1 μM each) were determined in parallel to confirm the enzymatic activity of the MLM. The incubation was stopped by addition of 2 volumes of acetonitrile containing internal standard (1 μM Leucine Enkephaline). Samples were centrifuged (15 min, 3,500 rpm). Concentration of the remaining test compound at the different time points was analyzed by HPLC-MS/MS and used to determine half-life (t1/2).

[3] = system: P. aeruginosa pyocyanin production; assay: Pyocyanin assay; assay type: cell-based, P. aeruginosa strain PA14; conditions: Pseudomonas aeruginosa, PA14, 16 h, read-out: IC50-value towards pyocyanin production
Method: Inhibition of P. aeruginosa pyocyanin production by compounds was determined photometrically as described before. In short, an overnight culture of PA14 in PPGAS medium was washed, diluted in medium to a start OD600 of 0.02, and incubated for 16 h (37° C., 200 rpm, relative humidity 75%) in the presence of test compounds. Then, cultures were extracted with chloroform and re-extracted with 0.2 M HCl. Protonated red colored pyocyanin was determined by measuring OD520 and normalizing to OD600.

Row | Compound | solubility at 5 min [1] [µM] | half-life at 1 µM [2] [h] | pIC50 [3]
1 | CC(C)Oc1ccc(-n2cc(CNc3cc(-c4cn[nH]c4)nc(C(F)(F)F)c3)nn2)cc1 [Compound 05, N-((1-(4-Isopropoxyphenyl)-1H-1,2,3-triazol-4-yl)methyl)-2-(1H-pyrazol-4-yl)-6-(trifluoromethyl)pyridin-4-amine] | > 25 |  | 
2 | CC(C)Oc1ccc(-n2cc(CNc3cc(-n4cncn4)nc(C(F)(F)F)c3)nn2)cc1 [Compound 06, N-((1-(4-Isopropoxyphenyl)-1H-1,2,3-triazol-4-yl)methyl)-2-(1H-1,2,4-triazol-1-yl)-6-(trifluoromethyl)pyridin-4-amine] | > 10 | 1.02 to 1.67 | 
3 | CC(C)Oc1ccc(-c2ncc(CNc3cc(-c4nn[nH]n4)nc(C(F)(F)F)c3)s2)cc1 [Compound 19] | ≥ 100 | > 1.67 | 
4 | CC(C)Oc1ccc(-c2ccc(CNc3cc(-c4cn[nH]c4)nc(C(F)(F)F)c3)nc2)cc1 [Compound 20, N-((5-(4-Isopropoxyphenyl)pyridin-2-yl)methyl)-2-(1H-pyrazol-4-yl)-6-(trifluoromethyl)pyridin-4-amine] | > 10 | > 1.67 | 6.70 to 7.00
5 | CC(C)Oc1ccc(-c2ccc(CNc3cc(-c4cn[nH]c4)nc(C(F)(F)F)c3)nn2)cc1 [Compound 22, N-((6-(4-Isopropoxyphenyl)pyridazin-3-yl)methyl)-2-(1H-pyrazol-4-yl)-6-(trifluoromethyl)pyridin-4-amine] | > 25 |  | 6.30 to 6.70
6 | CC(C)Oc1ccc(-c2ccc(CNc3cc(-n4cncn4)nc(C(F)(F)F)c3)nc2)cc1 [Compound 25, N-((5-(4-Isopropoxyphenyl)pyridin-2-yl)methyl)-2-(1H-1,2,4-triazol-1-yl)-6-(trifluoromethyl)pyridin-4-amine] |  | > 1.67 | 6.70 to 7.00
7 | CC(C)Oc1ccc(-c2ccc(CNc3cc(-n4cncn4)nc(C(F)(F)F)c3)nc2)cc1Cl [Compound 26, N-((5-(3-Chloro-4-isopropoxyphenyl)pyridin-2-yl)methyl)-2-(1H-1,2,4-triazol-1-yl)-6-(trifluoromethyl)pyridin-4-amine] |  | > 1.67 | 6.30 to 6.70
8 | CC(C)Oc1ccc(-c2ncc(CNc3cc(-n4ccnc4)nc(C(F)(F)F)c3)cn2)cc1 [Compound 29, 2-(1H-Imidazol-1-yl)-N-((2-(4-isopropoxyphenyl)pyrimidin-5-yl)methyl)-6-(trifluoromethyl)pyridin-4-amine] |  | > 1.67 | 6.70 to 7.00
9 | CC(C)Oc1ccc(-c2ncc(CNc3cc(-c4cc[nH]n4)nc(C(F)(F)F)c3)cn2)cc1Cl [Compound 32, N-((2-(3-Chloro-4-isopropoxyphenyl)pyrimidin-5-yl)methyl)-2-(1H-pyrazol-3-yl)-6-(trifluoromethyl)pyridin-4-amine] |  | 1.02 to 1.67 | 6.30 to 6.70
10 | N#Cc1cccc(-c2ncc(CNc3cc(-c4cn[nH]c4)nc(C(F)(F)F)c3)cn2)c1 [Compound 36, 3-(5-(((2-(1H-Pyrazol-4-yl)-6-(trifluoromethyl)pyridin-4-yl)amino)methyl)pyrimidin-2-yl)benzonitrile] | > 25 |  | 6.30 to 6.70
11 | Cc1ccc(-c2ncc(CNc3cc(-c4cn[nH]c4)nc(C(F)(F)F)c3)cn2)cc1C#N [Compound 37, 5-(5-(((2-(1H-Pyrazol-4-yl)-6-(trifluoromethyl)pyridin-4-yl)amino)methyl)pyrimidin-2-yl)-2-methylbenzonitrile] | > 10 |  | 6.70 to 7.00
12 | N#Cc1cc(-c2ncc(CNc3cc(-c4cn[nH]c4)nc(C(F)(F)F)c3)cn2)ccc1F [Compound 38, 5-(5-(((2-(1H-Pyrazol-4-yl)-6-(trifluoromethyl)pyridin-4-yl)amino)methyl)pyrimidin-2-yl)-2-fluorobenzonitrile] | > 25 |  | 6.70 to 7.00
13 | CC(C)Oc1ccc(-c2cnc(CNc3cc(-c4cn[nH]c4)nc(C(F)(F)F)c3)nc2)cc1 [Compound 40, N-((5-(4-Isopropoxyphenyl)pyrimidin-2-yl)methyl)-2-(1H-pyrazol-4-yl)-6-(trifluoromethyl)pyridin-4-amine] | > 10 |  | 6.30 to 6.70
14 | CC(C)Oc1ccc(-c2ncc(CNc3cc(-c4cnc[nH]4)nc(C(F)(F)F)c3)cn2)cc1 [Compound 41, 2-(1H-Imidazol-5-yl)-N-((2-(4-isopropoxyphenyl)pyrimidin-5-yl)methyl)-6-(trifluoromethyl)pyridin-4-amine] | > 10 | > 1.67 | 
15 | CC(C)Oc1ccc(-c2cnc(CNc3cc(-n4cncn4)nc(C(F)(F)F)c3)nc2)cc1 [Compound 42, N-((5-(4-Isopropoxyphenyl)pyrimidin-2-yl)methyl)-2-(1H-1,2,4-triazol-1-yl)-6-(trifluoromethyl)pyridin-4-amine] |  | > 1.67 | 6.30 to 6.70
16 | CC(C)Oc1ccc(-c2cnc(CNc3cc(-n4cncn4)nc(C(F)(F)F)c3)nc2)cc1Cl [Compound 43, N-((5-(3-Chloro-4-isopropoxyphenyl)pyrimidin-2-yl)methyl)-2-(1H-1,2,4-triazol-1-yl)-6-(trifluoromethyl)pyridin-4-amine] | > 10 | > 1.67 | 
17 | CC(C)Oc1ccc(-c2cnc(CNc3cc(-c4cnn(C)c4)nc(C(F)(F)F)c3)nc2)cc1 [Compound 44, N-((5-(4-Isopropoxyphenyl)pyrimidin-2-yl)methyl)-2-(1-methyl-1H-pyrazol-4-yl)-6-(trifluoromethyl)pyridin-4-amine] |  | > 1.67 | 6.30 to 6.70
18 | CC(C)Oc1ccc(-c2cnc(CNc3cc(-n4ccnc4)nc(C(F)(F)F)c3)nc2)cc1 [Compound 45, 2-(1H-Imidazol-1-yl)-N-((5-(4-isopropoxyphenyl)pyrimidin-2-yl)methyl)-6-(trifluoromethyl)pyridin-4-amine] |  | > 1.67 | 6.30 to 6.70
19 | CC(C)Oc1ccc(-c2cnc(CNc3cc(-n4ccnc4)nc(C(F)(F)F)c3)nc2)cc1Cl [Compound 46, N-((5-(3-Chloro-4-isopropoxyphenyl)pyrimidin-2-yl)methyl)-2-(1H-imidazol-1-yl)-6-(trifluoromethyl)pyridin-4-amine] |  | 1.02 to 1.67 | 6.30 to 6.70
20 | N#Cc1cc(-c2ncc(CNc3cc(-c4cn[nH]c4)nc(C(F)(F)F)c3)cn2)ccc1Cl [Compound 50, 5-(5-(((2-(1H-Pyrazol-4-yl)-6-(trifluoromethyl)pyridin-4-yl)amino)methyl)pyrimidin-2-yl)-2-chlorobenzonitrile] |  |  | 6.70 to 7.00
21 | Fc1cccc(Oc2ccc(-c3ncc(CNc4cc(-c5cn[nH]c5)nc(C(F)(F)F)c4)cn3)cc2)c1 [Compound 52, N-((2-(4-(3-Fluorophenoxy)phenyl)pyrimidin-5-yl)methyl)-2-(1H-pyrazol-4-yl)-6-(trifluoromethyl)pyridin-4-amine] |  | > 1.67 | 6.70 to 7.00
22 | Fc1ccc(Oc2ccc(-c3ncc(CNc4cc(-c5cn[nH]c5)nc(C(F)(F)F)c4)cn3)cc2)cc1 [Compound 53, N-((2-(4-(4-Fluorophenoxy)phenyl)pyrimidin-5-yl)methyl)-2-(1H-pyrazol-4-yl)-6-(trifluoromethyl)pyridin-4-amine] |  | > 1.67 | 6.70 to 7.00
23 | FC(F)(F)c1cc(NCc2cnc(-c3ccc(Oc4ccc(Cl)cc4)cc3)nc2)cc(-c2cn[nH]c2)n1 [Compound 54, N-((2-(4-(4-Chlorophenoxy)phenyl)pyrimidin-5-yl)methyl)-2-(1H-pyrazol-4-yl)-6-(trifluoromethyl)pyridin-4-amine] | > 10 | > 1.67 | 
24 | CC(C)Oc1ccc(-c2ncc(CNc3cc(-n4cncn4)nc(C(F)(F)F)c3)cn2)cc1 [Compound 59, N-((2-(4-Isopropoxyphenyl)pyrimidin-5-yl)methyl)-2-(1H-1,2,4-triazol-1-yl)-6-(trifluoromethyl)pyridin-4-amine] |  | > 1.67 | 6.70 to 7.00
25 | FC(F)(F)c1cc(SCc2nc3cc(Oc4ccccc4)ccc3[nH]2)cc(-n2ccnc2)n1 [Compound 62, 2-(((2-(1H-Imidazol-1-yl)-6-(trifluoromethyl)pyridin-4-yl)thio)methyl)-5-phenoxy-1H-benzo[d]imidazole] |  |  | 6.30 to 6.70
26 | FC(F)(F)c1nc(SCc2nc3cc(Oc4ccccc4)ccc3[nH]2)cc(-n2ccnc2)n1 [Compound 63, 2-(((6-(1H-Imidazol-1-yl)-2-(trifluoromethyl)pyrimidin-4-yl)thio)methyl)-5-phenoxy-1H-benzo[d]imidazole] | > 10 |  | 
27 | FC(F)(F)c1cc(SCc2nc3cc(Oc4ccccc4)ccc3[nH]2)cc(-c2cn[nH]c2)n1 [Compound 64, 2-(((2-(1H-pyrazol-4-yl)-6-(trifluoromethyl)pyridin-4-yl)thio)methyl)-5-phenoxy-1H-benzo[d]imidazole] | > 10 |  | 6.70 to 7.00
28 | CC(C)Oc1ccc(-c2ncc(CNc3cc(-c4cncs4)nc(C(F)(F)F)c3)cn2)cc1 [Compound 70, N-((2-(4-Isopropoxyphenyl)pyrimidin-5-yl)methyl)-2-(thiazol-5-yl)-6-(trifluoromethyl)pyridin-4-amine] |  | > 1.67 | 6.70 to 7.00
